Experimental data reported in patent publication US20020061346A1, “FOOD COMPOSITION” (priority 1998, published 2002).

Assay: Post-prandial study: carotenoid levels in triglyceride-rich blood fractions after a tomato-based meal with plant sterols
Type: in vivo, human
Conditions: 20 healthy adult volunteers; single meal with 130 g chunky tomato sauce (5.2 mg lycopene, 2.2 mg beta-carotene) and 2.2 g plant sterols; blood samples over 8 hours; pre-meal level taken as zero
Description: A post-prandial study was undertaken, in which 20 healthy, adult, human volunteers, 10 male, 10 female (age 30-65) were provided with an early-morning tomato-based meal, after which at regular intervals and for a period of 8 hours blood samples were taken. In the triglyceride-rich fractions (mainly consisting of chylomicrons that carry the digested fat and fat-soluble components from the intestine to the liver) of those blood samples the levels of lycopene, beta-carotene and also vitamin A were determined (using straight-phase HPLC analysis using a nucleosil cyanyl-bonded column). The levels of vitamin A (measured as retinyl palmitate) and beta-carotene can be taken together as a measure for beta-carotene uptake, as during absorption (or shortly thereafter) beta-carotene is partly converted into vitamin A. The integrated post-prandial response can then be used to estimate the bioavailability of beta-carotene and lycopene from a meal.
The meal consisted of 200 g of cooked macaroni, 130 g of chunky tomato sauce (containing more chunks of tomato flesh than most commercial tomato sauces) made of yellow, orange and super red varieties, 80 g of lean cooked ham (gammon), 20 g of white bread, and 11.6 g of sunflower oil (stripped, i.e. low in antoixidants) and 2.2 g of plansterols. […]

| Structure (SMILES) | post-prandial response (level in triglyceride-rich blood fractions, FIG. 1) |
| --- | --- |
| CC1=C(/C=C/C(C)=C/C=C/C(C)=C/C=C/C=C(C)/C=C/C=C(C)/C=C/C2=C(C)CCCC2(C)C)C(C)(C)CCC1 [beta-carotene] | clear post-prandial response |
| CC(C)=CCC/C(C)=C/C=C/C(C)=C/C=C/C(C)=C/C=C/C=C(C)/C=C/C=C(C)/C=C/C=C(\C)CCC=C(C)C [lycopene] | clear post-prandial response |
